Assays:
[1] = tested on: blood calcium; settings: oral 50 g calcium; cited from earlier work
[2] = tested on: plasma calcium concentration; assay: Plasma calcium after calving, herds without anionic diet (Example 5); assay type: in vivo, multiparous cows
Description: For examples 2 thru 5, statistical analysis consisted of repeated measures analysis of variance with cow nested within treatment and time after bolus administration as the repeated measure. Treatment plasma calcium means were compared at each time point using Tukey's test of comparison of means and differences are declared to be significant when the probability of the null hypothesis being correct is P<0.075.
In Example 5, multiparous cows were utilized from several small farms that were not utilizing an anionic diet to reduce the incidence of hypocalcemia in the cows. Within a few hours of calving, cows were administered one of four treatments. Six cows were not treated with any bolus after calving (No Bolus). Four cows were treated with intravenous calcium (10.5 g calcium in the form of calcium gluconate) after calving (IV Ca). Twenty-two cows received 2 boluses after calving that contained calcium salts and Solanum glaucophyllum leaf, supplying 78 g calcium and 1,25-dihydroxyvitamin D3 glycoside equivalent to 196 ug 1,25-dihydroxyvitamin D3 (Ca+SG Bolus). Twenty-four cows were treated at calving and again 12-24 hrs. later with commercial oral calcium salt boluses that supplied 40-44 g calcium each for a total calcium dose of 80-88 g, primarily from calcium chloride (Ca Bolus).

In the case of `[Ca+2].[Cl-].[Cl-]` [calcium chloride], the “calcium absorbed into the blood” value [1] is listed as “about 4 g”, the “duration of increase of blood calcium” value [1] is listed as 6 to 8 h and the “increase of blood calcium” value [1] is listed as “approximately 1 mg/dl”. The “time to increase of blood calcium” value [1] was ≤ 1 h.
For calcium gluconate [Ca IV], the “effect on calcium homeostasis mechanisms of the cow” value ([2]; 10.5 g calcium intravenous) was “inhibited the calcium homeostasis mechanisms”, the “plasma calcium concentration, rank among treatments” value ([2]; 24 to 84 hours after calving) was “lowest plasma calcium concentration” and the “hypocalcemia versus no treatment” value ([2]; days 2 and 3 following lactation) was “more hypocalcemia”. For the same compound, the “plasma calcium concentration, rank among treatments” value ([2]; four hours after calving) was “highest plasma calcium concentration”.

Source: patent US20230248762A1, “Method and composition for supporting normal blood calcium concentrations in mammals” (Contract Manufacturing Services, LLC, priority 2022, published 2023)
